The term inhibition denotes the change of the read-out against control, counted positive when it falls.

Here are results for 1 compound from patent US9102710B2, “Cyclic peptides binding CXCR4 receptor and relative medical and diagnostic uses” (IRCCS-ISTITUTO NAZIONALE PER LO STUDIO E LA CURA DEI TUMORI …, priority 2010, dated 2015).

The conditions of series [1]: cited from earlier work.
For the next series, the target named is T1, CXCR4 receptor (Homo sapiens, UniProt P61073).
T1 construct: a leukaemia T CD4+ cell line with a high expression of the CXCR4 receptor; endogenous in cells; host or cells: CCRF-CEM (printed also CCFR-CEM) leukaemia T CD4+ cells
T1 sequence (P61073 whole entry): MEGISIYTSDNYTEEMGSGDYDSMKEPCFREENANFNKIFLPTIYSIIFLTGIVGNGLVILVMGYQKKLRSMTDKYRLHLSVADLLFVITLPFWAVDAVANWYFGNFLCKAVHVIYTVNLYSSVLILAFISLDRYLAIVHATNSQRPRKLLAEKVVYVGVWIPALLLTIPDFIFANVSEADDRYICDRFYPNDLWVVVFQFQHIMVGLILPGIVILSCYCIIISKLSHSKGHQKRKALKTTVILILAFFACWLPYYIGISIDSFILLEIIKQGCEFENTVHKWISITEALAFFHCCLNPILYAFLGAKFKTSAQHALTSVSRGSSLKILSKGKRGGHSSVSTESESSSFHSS
The series is described as follows: Cytofluorimetric determination of Ca2+ release in CCFR-CEM cells after stimulation with SDF-1α. In kind it is cell-based. As to conditions: compound 10 uM, read-out: reduction (inhibition) of Calcium release induced by SDF-1α. An excerpt: For all the subsequent in vitro examples, two cell lines were used: CCFR-CEM and PES 43; the first is a leukaemia T CD4+ cell line with a high expression of the CXCR4 receptor, grown in a RPMI 1640 culture medium enriched with 10% of Fetal Bovine Serum (FBS) inactivated with heat and 1% of L-Glutamine; the second is a cell line deriving from melanoma lung metastasis called PES43 with a high expression of the CXCR4 receptor, grown in Iscove's Modified Dulbecco's Medium (IMDM) supplemented with 10% of Fetal Bovine Serum (FBS) inactivated with heat and 1% of Penicillin-Streptomycin.
The determination of the release of intracellular Calcium was effected in CCFR-CEM cells. The cells (500,000 cells) were washed with PBS, resuspended in 1 ml of Loading Buffer (PBS 1×, 1 mM CaCl2, 1 mM MgCl2, 1% FBS inactivated with heat) at 37° C., and incubated with 4 ul of the calcium tracer FLUO3-AM (1 mg/ml; Sigma) and 4 ul of Pluronic Acid F-127 (1 mg/ml in 2% of DMSO; Invitrogen) in the dark for 30′ at 37° C. under stirring. In order to remove the excess FLUO3-AM, 3 ml of Loading Buffer are added, this is followed by a centrifugation for 5′ at 1,000-1,200 rpm. The pellet thus obtained is resuspended in 1 ml of Loading Buffer. […]

The test system of series [2] is phosphorylation of ERK 1,2. Description: p-ERK induction by Immunoblotting in PES43 cells. The note with it: AMD3100 1 uM, SDF-1α 100 ng/ml. The format is cell-based, human. The procedure:
CXCL12 activates the phosphorylation of ERK and this phosphorylation is inhibited by both AMD3100 (1 uM), and by the peptides css:[C-WHR-C] (10 uM), css:[C-FFR-C] (10 uM), css:[C-FFR-C]-Nam (10 uM), css:[C-WYR-C]-AR (10 uM), RA-css:[C-RFF-C] (10 uM), RA-css:[C-RHW-C] (10 uM), abb:[β-Ala-WHR-β-Ala] (10 uM).
The activation of CXCR4 induces the transduction path of MAPK through the phosphorylation of ERK 1,2. For this reason, the modulation of the induction of P-ERK was evaluated in relation to treatment with SDF-1α (100 ng/ml), peptides (10 uM) and AMD3100 (1 uM).
The cells were deprived of serum for 24 hours and then stimulated with SDF-1α.
The human melanoma cells, PES43, grown on 100 mm plates, were treated with SDF-1α, for 2-5-7-10 minutes. The cells were then mechanically detached, lysed in a specific buffer to which protease inhibitors and phosphatase inhibitors were added (120 mM NaCl, 40 mM Hepes, 5 mM MgCl2, 1 mM EGTA, 0.5 mM EDTA, 0.6% Triton, 10% glycerol, […], 1 mM Na3VO4, 1 mM NaF). The cell lysates thus obtained (50 μg of total proteins) were first denatured with Laemmli 4× and then separated with SDS-PAGE on gel at 10% in the presence of a running buffer (Tris Base, Glycine, SDS); the proteins were subsequently transferred onto a nitrocellulose membrane in incubated with primary antibodies specific for the following proteins: phospho-ERK 1/2, total ERK. […]
Background: In western blotting, separated proteins are transferred to a membrane and probed.

With `c1cc(CN2CCCNCCNCCCNCC2)ccc1CN1CCCNCCNCCCNCC1` [AMD3100, 1,19-[1,4-phenylenebis(methylene)]-bis-1,4,8,11-azatetradecane], in series [1] (healthy volunteers, Phase 1), the “time of peak of increase in white blood cell series after administration” value is 6 h. In addition, in series [1] (previous studies [4]), the bioavailability result is recorded as “poor”; the toxicity entry is “hepatic, cardiac and cerebellar toxicity”. Further, the inhibition at 10 µM at CXCR4 receptor stood at 70%. In addition, in series [2], the “inhibition of SDF-1α-activated phosphorylation of ERK” value is listed as “inhibited”.
